Data set [1] can be described thus: Cytotoxicity against HEK293 cells assessed as decrease in cell viability after 72 hrs by CellTiter Glo luminescent assay. To be noted: human. In kind it is cell-based. Background: ATP-based viability assays read luminescence as a measure of living cells.
The target in data set [2] is T1, Beta-secretase 1 (Homo sapiens, UniProt P56817). Nature of the data set: Binding affinity to BACE1 (unknown origin) by SPR method. For orientation: SPR reads the build-up and loss of mass on a sensor chip optically.
Data set [3] has as its target T1, Beta-secretase 1. Nature of the data set: Inhibition of BACE1 (unknown origin) at 50 uM using Rh-EVNLDAEFK-Quencher as substrate after 60 mins by FRET assay relative to control.
For data set [4], the target named is T1, Beta-secretase 1. Nature of the data set: Inhibition of BACE1 (unknown origin) using Rh-EVNLDAEFK-Quencher as substrate after 60 mins by FRET assay.
The nature of a further data set: in vitro. To be noted: PAMPA. In general terms: In PAMPA a lipid-coated filter parts donor from acceptor wells.
The target in data set [5] is T1, Beta-secretase 1. Nature of the data set: Inhibition of BACE1 (unknown origin) at 10 uM using Rh-EVNLDAEFK-Quencher as substrate after 60 mins by FRET assay relative to control.
Data set [6] has as its target T1, Beta-secretase 1. The data set can be described thus: Inhibition of BACE1 (unknown origin) at 1 uM using Rh-EVNLDAEFK-Quencher as substrate after 60 mins by FRET assay.

Molecules are shown by their SMILES. Bounds are passed on as bounds.

T1 sequence (P56817 whole entry): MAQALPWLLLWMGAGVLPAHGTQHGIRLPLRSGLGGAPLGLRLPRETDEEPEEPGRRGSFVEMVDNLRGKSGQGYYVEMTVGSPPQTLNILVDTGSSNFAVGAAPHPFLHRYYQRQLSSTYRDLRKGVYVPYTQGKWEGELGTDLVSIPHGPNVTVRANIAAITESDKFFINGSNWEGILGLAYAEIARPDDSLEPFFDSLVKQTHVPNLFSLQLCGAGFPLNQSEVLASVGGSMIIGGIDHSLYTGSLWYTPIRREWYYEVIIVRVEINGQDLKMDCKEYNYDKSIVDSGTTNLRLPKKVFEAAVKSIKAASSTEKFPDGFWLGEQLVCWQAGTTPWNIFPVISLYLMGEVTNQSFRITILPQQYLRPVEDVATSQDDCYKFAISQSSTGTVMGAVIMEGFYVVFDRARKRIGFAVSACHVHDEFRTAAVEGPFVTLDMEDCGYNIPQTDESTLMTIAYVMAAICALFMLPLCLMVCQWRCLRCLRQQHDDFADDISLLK
Description for in vitro: Permeability of the compound at 25 ug/ml after 18 hrs by PAMPA

For the molecule `COc1cccc(-c2nc(SCC(=O)Nc3nc(-c4cc(Cl)c(N)c(Cl)c4)cs3)[nH]c(=O)c2C#N)c1`, the CC50 at 72 h in data set [1] was above 50 µM. The Kd at Beta-secretase 1 [2] is 861 nM. The inhibition amounted to 91.8% at Beta-secretase 1 [3] and 58.9% on Beta-secretase 1 [5]. The molecule further yielded a half-maximal inhibitory concentration (IC50) against Beta-secretase 1 [4] of 7.7 µM. In “in vitro”, this molecule gave a Papp at 18 h, 25 ug/ml of 0.11 ×10⁻⁶ cm/s.
Take `CN[C@@H]1C[C@H]2O[C@@](C)([C@@H]1OC)n1c3ccccc3c3c4c(c5c6ccccc6n2c5c31)C(=O)NC4` [STAUROSPORINE]: in data set [1], the CC50 at 72 h is 0.00354 µM.
As for `COc1cccc(-c2nc(SCC(=O)Nc3nc(-c4cc(Cl)c(N)c(Cl)c4)c[nH]3)[nH]c(=O)c2C#N)c1`, in data set [1], the CC50 at 72 h was above 50 µM. Moreover, on Beta-secretase 1 [2], the Kd came out at 169 nM. Moreover, the inhibition turned out to be 26.4% on Beta-secretase 1 [6] and 87.7% on Beta-secretase 1 [5]. Also, on Beta-secretase 1 [4], the concentration for half-maximal inhibition (IC50) worked out at 3.2 µM. In the data set “in vitro”, this molecule came in with a Papp at 18 h, 25 ug/ml of 0.34 ×10⁻⁶ cm/s.
Turning to `CCOc1cccc(-c2nc(SCC(=O)Nc3nc(-c4cc(Cl)c(N)c(Cl)c4)cs3)[nH]c(=O)c2C#N)c1`, the half-maximal cytotoxic concentration (CC50) at 72 h in data set [1] was above 50 µM. Besides, the figures for the inhibition on Beta-secretase 1 [3] and on Beta-secretase 1 [5] were 79.9% and 24.5%, respectively. Besides, the IC50 against Beta-secretase 1 [4] was 13.5 µM. The apparent permeability (Papp) at 18 h, 25 ug/ml in the data set “in vitro” stood at 0.07 ×10⁻⁶ cm/s.
Consider `N#Cc1c(-c2cccc(OC(F)(F)F)c2)nc(SCC(=O)Nc2nc(-c3cc(Cl)c(N)c(Cl)c3)cs2)[nH]c1=O`, for which the inhibition is 39.6% at Beta-secretase 1 [3] and 6.1% against Beta-secretase 1 [5].
For `CCOc1cccc(-c2nc(SCC(=O)Nc3nc(-c4cc(Cl)c(NC(C)=O)c(Cl)c4)cs3)[nH]c(=O)c2C#N)c1`, the figures for the inhibition against Beta-secretase 1 [3] and at Beta-secretase 1 [5] were 4.7% and 2.5%, respectively.
For the molecule `N#Cc1c(-c2cccc(C(F)(F)F)c2)nc(SCC(=O)Nc2nc(-c3cc(Cl)c(N)c(Cl)c3)cs2)[nH]c1=O`, in data set [1], the half-maximal cytotoxic concentration (CC50) at 72 h came out at 47.7 µM. At Beta-secretase 1 [2], this molecule returned a Kd of 1330 nM. The inhibition stood at 86.1% against Beta-secretase 1 [3] and 13% at Beta-secretase 1 [5]. On Beta-secretase 1 [4], inhibition was half-maximal at 13.4 µM (IC50). The molecule also yielded an apparent permeability (Papp) at 18 h, 25 ug/ml in the data set “in vitro” of 0.88 ×10⁻⁶ cm/s.
Take `COc1cccc(-c2nc(SCC(=O)Nc3nc(-c4cc(Cl)c(NC(C)=O)c(Cl)c4)cs3)[nH]c(=O)c2C#N)c1`: the values for the inhibition against Beta-secretase 1 [3] and against Beta-secretase 1 [5] were 1.4% and 0.3%, respectively.
With `Clc1cccc(Cl)c1N=C1NCCN1` [CLONIDINE], the Papp at 18 h, 25 ug/ml in “in vitro” turned out to be 5.9 ×10⁻⁶ cm/s.
For the molecule `COc1cccc(-c2nc(SCC(=O)Nc3nc(-c4cccc(Br)c4)cs3)[nH]c(=O)c2C#N)c1`, in data set [1], the CC50 at 72 h is above 50 µM. Also, at Beta-secretase 1 [2], binding was characterised by a dissociation constant (Kd) of 1740 nM. Moreover, the inhibition was determined as 90.4% against Beta-secretase 1 [3] and 14.3% against Beta-secretase 1 [5]. For the same molecule, the half-maximal inhibitory concentration (IC50) against Beta-secretase 1 [4] came to 17.5 µM. In the data set “in vitro”, this molecule displayed an apparent permeability (Papp) at 18 h, 25 ug/ml of 0.94 ×10⁻⁶ cm/s.

The CC50 is the concentration at which the toxic effect on the cells reaches its halfway point. As usually defined, the Kd is the constant that tells how readily two partners part at equilibrium. High values mean weaker binding, low ones tighter binding. The inhibition is the percentage by which the read-out fell short of the control. The low end stands for a weak effect, the high end for a strong effect. One may read the IC50 as the midpoint of a concentration-inhibition curve. A higher IC50 goes with weaker potency. Broadly, the Papp is the rate of passage across a membrane or cell layer, normalised by area and donor concentration. Low readings indicate slow passage, high ones fast passage.

These data come from ChEMBL document CHEMBL4118072, “2-Substituted-thio-N-(4-substituted-thiazol/1H-imidazol-2-yl)acetamides as BACE1 inhibitors: Synthesis, biological evaluation and docking studies” (Eur J Med Chem, 2017).
